Test results as given in patent US20120225862A1, “HETEROARYL BENZAMIDES, COMPOSITIONS AND METHODS OF USE” (AUCKLAND UNIVSERVICES LIMITED, priority 2009, published 2012).

Legend:
[1] = test system: 786-O; assay: FDG-PET imaging of 786-O xenografts; format: in vivo, mice; conditions: 786-O xenografts in CD-1 nude mice, three daily i.p. doses (11.6 mg/kg)
Description: FIG. 5A-E In vivo monitoring and efficacy of compound 47. […] 786-O, a renal clear cell carcinoma with a naturally occurring VHL mutation, were implanted subcutaneously into the flanks of CD-1 nude mice. Representative axial cross section of a mouse prior to treatment (left) and following three daily i.p. injections with compound 85 (11.6 mg/kg)(right), overlaid over CT scan. (B) Quantitatively, compound 85 inhibits FDG-PET in mouse xenografts. Quantification of FDG-PET inhibition by compound 85 as determined by the 90th percentile ROI for percent injected dose per gram (% ID/g) (*p<0.01). (C) Compound 85 is not toxic to normal tissues. (a, b) Kidney of vehicle- and compound 85-treated animals. (c, d) Spleen of vehicle- and compound 85-treated animals. (e, f) Liver of vehicle- and compound 85-treated animals. (g, h) Heart of vehicle- and compound 85-treated animals. (i, j) Salivary gland of vehicle- and compound 85-treated animals. (k, l) Brain of vehicle- and compound 85-treated animals. Scale bar represents 100 microns. (D) Compound 85 delays tumor growth. 786-O tumor-bearing mice were treated daily with vehicle or compound 85 (11.6 mg/kg for the first 3 days, followed by 7.8 mg/kg for the next week)(*p<0.005). (E) Compound 85 delays tumor growth in cells that have lost VHL. ACHN cells expressing a short hairpin RNA to VHL were implanted subcutaneously into the flanks of immunocompromised mice. Once tumors reached an average of >20 mm^3, mice were treated daily with compound 85 or vehicle (*p<0.05). All error bars represent the standard error of the mean.
In Vivo Studies and Immunohistochemistry. All experiments were approved by Stanford's Administrative Panel on Laboratory Animal Care (APLAC) and in accordance with both institutional and national guidelines. Five million cells were implanted subcutaneously into the flanks of nude mice (4-6 weeks old)(Charles River Laboratories). Tumors were measured with calipers. Volume was calculated by the following formula: width^2×0.5 length. […]

[2] = test system: RCC4; assay: 3H-2-deoxyglucose uptake, RCC4; format: cell-based, human; conditions: 3H-2-deoxyglucose, two days of treatment, 5 μM
Description: One hundred thousand cells were plated into 6-well plates. The following day, the cells were treated with vehicle or drug and incubated for the indicated time. Cells were washed twice in phosphate buffered saline and low glucose media was added for 30 minutes. Cells were then incubated with 0.5 microCi of tritiated-2-deoxyglucose and incubated for an hour at 37° C. Cells were washed twice in PBS and then lysed in 0.2 N NaOH and 0.2% SDS. Lysates were transferred to scintillation tubes with scintillation fluid and quantified by scintillation counter.
One hundred thousand cells were plated per well in a six-well plate. The next day, cells were treated with the indicated concentration of drug and incubated for the indicated time. Cells were then washed twice with phosphate-buffered saline, incubated in low-glucose medium for 30 minutes, and ^3H-2-deoxyglucose (0.5 μCi) was added in 1 ml of glucose-free media for an additional hour. Cells were washed twice in PBS and lysed (0.2 N NaOH and 0.2% sodium dodecyl sulfate). Glucose uptake was quantified with a scintillation counter.

[3] = test system: RCC4/VHL; assay: Clonogenic survival, RCC4/VHL; format: cell-based, human; conditions: RCC4/VHL (wild-type VHL), 5 μM, 10 days
Description: (§1) Three hundred cells were plated into 60-mm tissue culture dishes in DMEM. The next day, cells were treated with vehicle or drug and were further incubated for an additional 10 days. After 10 days, the media was removed and colonies were fixed and stained in 95% ethanol and 0.1% crystal violet for 15 minutes. The stain was removed and plates were washed in deionized water. Colonies were quantified. All conditions were measured in triplicate and all experiments were performed in triplicate.
For 2,3-bis[2-methoxy-4-nitro-5-sulfophenyl]-2H-tetrazolium-5-carboxanilide (XTT) assays, five thousand cells were plated in 96-well plates. The next day, vehicle (DMSO) or drug was added by serial dilution. Four days later, media were aspirated, XTT solution (0.3 mg/ml of XTT (Sigma), 2.65 mg/ml N-methyl dibenxopyrazine methyl sulfate (Simga) in phenol red-free media) was added, and the plates were incubated at 37° C. for 1-2 hours. Metabolism of XTT was quantified by measuring the absorbance at 450 nm. IC50s were calculated using linear interpolation. For clonogenic survival assays, three hundred cells were plated per 60 mm tissue culture dish. The cells were allowed to attach overnight and then treated with vehicle or drug for 14 days. […] All conditions were measured in triplicate and each experiment was done in duplicate or triplicate. […] Live and dead cells were counted on a hematocytometer.

[4] = test system: RCC4; assay: XTT IC50 / viability assay, RCC4 cells; format: cell-based, human; conditions: for IC50: Homo sapiens, RCC4, 96 h, XTT assay, four days
In short: (§2)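 RCC4 parental and VHL-reintroduced RCC4/VHL cells (DMEM, 10% FCS) treated with serially diluted drug for four days. Viability by XTT (0.3 mg/mL) with N-methyl dibenzopyrazine methyl sulfate, 1–2 h at 37 °C, absorbance 450 nm; IC50 by linear interpolation.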

[5] = test system: RCC4; assay: Clonogenic survival, RCC4; format: cell-based, human; conditions: RCC4 (VHL-deficient), 5 μM, 10 days
Description: as §1, with “After 10 days, the media was removed and colonies were fixed and stained in 95% ethanol and 0.1% crystal violet for 15 minutes.” left out
For 2,3-bis[2-methoxy-4-nitro-5-sulfophenyl]-2H-tetrazolium-5-carboxanilide (XTT) assays, five thousand cells were plated in 96-well plates. The next day, vehicle (DMSO) or drug was added by serial dilution. […] Metabolism of XTT was quantified by measuring the absorbance at 450 nm. IC50s were calculated using linear interpolation. For clonogenic survival assays, three hundred cells were plated per 60 mm tissue culture dish. The cells were allowed to attach overnight and then treated with vehicle or drug for […]. […] All conditions were measured in triplicate and each experiment was done in duplicate or triplicate. To determine necrosis, cells were treated with drug for a given time point. Media and cells were collected, centrifugated, and resuspended in 0.4% trypan blue (Invitrogen). Live and dead cells were counted on a hematocytometer.

[6] = test system: RCC4/VHL; assay: XTT IC50 assay, selectivity RCC4 versus RCC4 with VHL-reintroduced; format: cell-based, human; conditions: selectivity ratio of XTT IC50 values, RCC4 vs RCC4/VHL
In short: as §2

[7] = target: T1, GLUT1 (Homo sapiens, UniProt P11166); assay: Affi-gel affinity binding of GLUT1 from cell lysates; conditions: salt elution, immunoblot; for binding of GLUT1 to Affi-gel immobilized compound, RCC4 lysates: RCC4 cell lysates
T1 construct: endogenous in cells; host or cells: RCC4 and RCC4/VHL cell lysates
T1 sequence (P11166 1-492): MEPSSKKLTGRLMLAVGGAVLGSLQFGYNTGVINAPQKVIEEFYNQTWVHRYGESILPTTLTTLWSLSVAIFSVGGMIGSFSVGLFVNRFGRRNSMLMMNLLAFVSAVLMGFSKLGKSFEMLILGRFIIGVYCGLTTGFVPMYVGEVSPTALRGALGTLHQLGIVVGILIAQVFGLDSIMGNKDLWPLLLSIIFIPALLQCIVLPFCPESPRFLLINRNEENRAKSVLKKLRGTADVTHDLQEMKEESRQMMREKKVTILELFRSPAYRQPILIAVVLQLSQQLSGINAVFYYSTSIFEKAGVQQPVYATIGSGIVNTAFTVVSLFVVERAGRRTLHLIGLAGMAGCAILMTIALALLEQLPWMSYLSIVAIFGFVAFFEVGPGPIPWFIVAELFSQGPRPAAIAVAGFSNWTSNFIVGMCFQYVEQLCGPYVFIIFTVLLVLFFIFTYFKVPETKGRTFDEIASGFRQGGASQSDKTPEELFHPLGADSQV
Description: All cells were grown in DMEM+10% FCS. ACHN and ACHN shVHL were a kind gift from George V. Thomas (UCLA). HIF overexpressing clones were described previously. Transfection of RNA oligos were performed with DnarmaFECT Reagent 1 (Dharmcon), according to manufacturer's directions. ON-TARGETplus SMART pools against HIF-1β/ARNT were purchased from Dharmacon. Glut1 was detected with anti-GLUT1 antibody from NeoMarkers/LabVision/Fisher. Pyruvate/lactate levels and hexokinase activity were both measured by fluorometric assay (BioVision and Sigma-Aldrich, respectively). ATP levels were measured by bioluminescence assay (ATP Determination Kit from Molecular Probes/Invitrogen). In vitro kinase activities were performed by Millipore KinaseProfiler. Affi-Gel 10 (BioRad) activated affinity media was coupled to analogs to generate immobilized affinity linkers.
We next wanted to investigate the differential glucose uptake between RCCs with and without VHL treated with compound 47 that subsequently lead to the selective death of VHL-deficient cells. We first examined the message levels of the two main glucose transporters, GLUT1 and GLUT2 by quantitative real-time PCR. GLUT1 is an inducible, high-affinity glucose transporter, while GLUT2 is the glucose transporter responsible for basal glucose uptake. Other family members, such as GLUT3 and GLUT4, are not expressed in renal cells. GLUT1 was highly expressed in cells lacking VHL, while cells with VHL had very low levels of GLUT1 (FIG. 3I). In contrast, GLUT2 was highly expressed in cells with wild-type VHL. Cells deficient in VHL had very low levels of GLUT2 that could barely be detected (FIG. 3J). […] In order to more directly test this, we performed binding assays to see whether compound 47 was directly interacting with GLUT1. An analog of compound 47, compound 116 was synthesized and linked to an immobilized linker (Affi-gel 10). Cell lysates from both RCC4 and RCC4/VHL were incubated with the Affi-gel-compound 47. […]

Structure (SMILES)	IC50 [4] [µM]	Ratio (RCC4:RCC/VHL) [6]	binding of GLUT1 to Affi-gel immobilized compound, RCC4 lysates [7]	other results
Cc1cccc(Nc2nc(-c3ccncc3)cs2)c1 [4-(pyridin-4-yl)-N-(m-tolyl)thiazol-2-amine, reference compound]				glucose uptake within tumors by FDG-PET [1]: did not have a decrease in glucose uptake; glucose uptake in VHL-deficient RCC4 cells [2]: did not decrease glucose uptake
COc1cccc(S(=O)(=O)NCc2ccc(C(=O)Nc3cccnc3)cc2)c1 [Example 18, 4-((3-Methoxyphenylsulfonamido)methyl)-N-(pyridin-3-yl)benzamide]	1 to 20	b (“b” reflects from 10 to 100)		clonogenic survival of RCC4/VHL [3]: relatively unaffected; number of RCC4 cells compared to RCC4/VHL (XTT metabolic activity) ([4]; four days of treatment, concentration-dependent, FIG. 2A): significant decrease in the number of RCC4 cells; clonogenic survival of RCC4 [5]: specifically toxic to RCC4 cells
NCCOCCOCCOCCOCCOCCOCC#Cc1ccc(S(=O)(=O)NCc2ccc(C(=O)Nc3cccnc3)cc2)cc1 [Example 100, 4-[({[4-(21-Amino-4,7,10,13,16,19-hexaoxahenicos-1-yn-1-yl)phenyl]sulfonyl}amino)methyl]-N-(3-pyridinyl)benzamide]	1 to 20	a (“a” reflects a ratio of RCC4/RCC-VHL+ ranging from 1 to 10)	bound	
Cc1cccc(Nc2nc(-c3ccnc(-c4cn(CCCCCCN)nn4)c3)cs2)c1 [4-{2-[1-(6-aminohexyl)-1H-1,2,3-triazol-4-yl]-4-pyridinyl}-N-(3-methylphenyl)-1,3-thiazol-2-amine, reference compound]			did not bind	binding of GLUT1 to Affi-gel immobilized compound, RCC4/VHL lysates ([7]; RCC4/VHL cell lysates): did not bind
